Assay results published in patent US7459466B2, “Substituted 2-(2,6-dioxopiperidin-3-yl)-phthalimides and -1-oxoisoindolines and method of reducing TNFα levels” (Celgene Corporation, priority 1997, dated 2008).

melting point: 268 to 269 °C
SMILES: CC1(N2C(=O)c3cccc(N)c3C2=O)CCC(=O)NC1=O (stereo not shown) [Example 7, 3-(3-Aminophthalimido)-3-methyl-piperidine-2,6-dione]
